Usually EC50 stands for the midpoint of the concentration-response curve.

Structures are written as SMILES.

The nature of the experiment: Induction of rat oligodendrocyte progenitor cells differentiation assessed as myelin basic protein expression level. The class given is functional.
For `CN1c2cc(F)ccc2CC12CCN(CC1CCOCC1)CC2`, the EC50 turned out to be 10 nM.

In the case of `O=C1c2cc(C(F)(F)F)ccc2NC12CCN(CC1CCOCC1)CC2`, the EC50 was 3.2 nM.

Turning to `FC(F)(F)c1ccc2c(c1)N(CC1CCOCC1)C1(CCN(CC3CCOCC3)CC1)C2`, the EC50 came out at 13 nM.

On to `COC1(CN2CCC3(CC2)Cc2ccc(C(F)(F)F)cc2N3C)CCOCC1`, for which the EC50 amounted to 54 nM.

For the compound `CN1c2ccc(C(F)(F)F)cc2C(=O)C12CCN(CC1CCOCC1)CC2`, the EC50 was found to be 9.3 nM.

As to `FC(F)(F)c1ccc2c(c1)CC1(CCN(CC3CCOCC3)CC1)N2`, the EC50 was found to be 240 nM.

As for `CN1c2cc(C(F)(F)F)ccc2CC12CCN(CC1CCC(F)(F)CC1)CC2`, the EC50 is 4.7 nM.

Regarding `CN1c2cc(C(F)(F)F)ccc2CC12CCN(CC1CCOCC1)CC2`, the EC50 is 1.9 nM.

As for `FC(F)(F)c1ccc2c(c1)N(Cc1ccccc1)C1(CCN(CC3CCOCC3)CC1)C2`, the EC50 turned out to be 3.7 nM.

`CC(C)(C)OC(=O)CN1c2cc(C(F)(F)F)ccc2CC12CCN(CC1CCOCC1)CC2`: the EC50 amounted to 15 nM.

Consider `CN1c2ccc(C(F)(F)F)cc2CC12CCN(CC1CCOCC1)CC2`, for which the EC50 was found to be 7100 nM.

As to `CC(=O)N1c2cc(C(F)(F)F)ccc2CC12CCN(CC1CCOCC1)CC2`, the EC50 is 60 nM.

`COCCN1CCC2(CC1)Cc1ccc(C(F)(F)F)cc1N2C`: the EC50 came to 250 nM.

With `O=C1c2ccc(C(F)(F)F)cc2NC12CCN(CC1CCOCC1)CC2`, the EC50 was 54 nM.

Take `CN1c2cc(C(F)(F)F)ccc2CC12CCN(CC1(O)CCOCC1)CC2`: the EC50 worked out at 5.8 nM.

Turning to `COCCCN1CCC2(CC1)Cc1ccc(C(F)(F)F)cc1N2C`, the EC50 is 240 nM.

For the compound `CN(C)C(=O)CN1c2cc(C(F)(F)F)ccc2CC12CCN(CC1CCOCC1)CC2`, the EC50 turned out to be 700 nM.

Turning to `CN1c2cc(C(F)(F)F)ccc2C(=O)C12CCN(CC1CCOCC1)CC2`, the EC50 was determined as 1.4 nM.

With `CN1c2cc(Cl)ccc2CC12CCN(CC1CCOCC1)CC2`, the EC50 was found to be 19 nM.

Turning to `OCCN1c2cc(C(F)(F)F)ccc2CC12CCN(CC1CCOCC1)CC2`, the 50% effective concentration (EC50) turned out to be 74 nM.

Source of the values: ChEMBL document CHEMBL4622937, “Design, synthesis, and biological evaluation of spiroindolines as novel inducers of oligodendrocyte progenitor cell differentiation-Use of a conformation-based hypothesis to facilitate compound design” (Bioorg Med Chem Lett, 2020).
